Results from PubChem BioAssay (NCI).
Where “and” joins values, the source holds several entries; their conditions need not be identical. Identical values can stand only once.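 1) Cells in 96-well plates. 2) Compound, 48 h, 5 concentrations. 3) Linear interpolation between surrounding doses. 4) Unreached endpoint = highest concentration. At the GI50, growth is halved. The concentration for full growth arrest is given as TGI.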

Assays:
Assay in all cases: inhibition of tumour cell growth, NCI panel, 48 h
SK-MEL-5 melanoma = tested on: SK-MEL-5 melanoma
EKVX NSCLC = tested on: EKVX NSCLC
CAKI-1 renal = tested on: CAKI-1 renal
U251 CNS = tested on: U251 CNS
LXFL 529 NSCLC = tested on: LXFL 529 NSCLC
OVCAR-8 ovarian = tested on: OVCAR-8 ovarian
CCRF-CEM leukemia = tested on: CCRF-CEM leukemia
SNB-78 CNS = tested on: SNB-78 CNS
HOP-18 NSCLC = tested on: HOP-18 NSCLC
SK-MEL-2 melanoma = tested on: SK-MEL-2 melanoma

SMILES | TGI (SK-MEL-5 melanoma) [µM] | TGI (EKVX NSCLC) | TGI (CAKI-1 renal) [µM] | TGI (U251 CNS) [µM] | TGI (LXFL 529 NSCLC) [µM] | TGI (OVCAR-8 ovarian) [µM] | TGI (CCRF-CEM leukemia) [µM] | TGI (SNB-78 CNS) [µM] | GI50 (SK-MEL-5 melanoma) [µM] | GI50 (EKVX NSCLC) [µM] | GI50 (HOP-18 NSCLC) [µM] | TGI (HOP-18 NSCLC) [µM] | GI50 (SK-MEL-2 melanoma) [µM] | TGI (SK-MEL-2 melanoma) [µM] | GI50 (CAKI-1 renal) [µM] | GI50 (U251 CNS) [µM] | GI50 (LXFL 529 NSCLC) [µM] | GI50 (OVCAR-8 ovarian) [µM] | GI50 (SNB-78 CNS) [µM] | GI50 (CCRF-CEM leukemia) [µM]
O=C(/C=C1/Nc2ccc([N+](=O)[O-])cc2NC1O)c1cccc([N+](=O)[O-])c1 (stereo unspecified) | > 100 | > 100 µM | > 100 | > 100 | > 100 | 48.7 | > 100 | > 100 |  |  |  |  |  |  |  |  |  |  |  | 
CC1(C)OC(=O)C=C([O-])O1.CC1(C)OC(=O)C=C([O-])O1.CC[O-].CC[O-].[Ti+4] | > 100 | > 100 µM | > 100 | > 100 | > 100 | > 100 |  | > 100 | > 100 | > 100 | > 100 | > 100 | > 100 | > 100 | > 100 | > 100 | > 100 | > 100 | > 100 | 
CC(=O)Oc1ccc(C(c2ccc(OC(C)=O)cc2)c2ccccn2)cc1 | > 100 | > 100 µM and 57.1 µM | > 100 | > 100 | > 100 | > 100 | > 100 |  | 31.8 |  |  | > 100 | 43.1 | > 100 | 46.8 |  |  | 21.8 |  | 43
CN(C)C(=S)/N=c1\ss/c(=N\S(=O)(=O)c2ccccc2)n1N(C)C | > 100 | > 100 µM | > 100 | > 100 | > 100 | > 100 | > 100 | > 100 |  |  |  | > 100 |  | > 100 |  |  |  |  |  | 
COC(=O)CCC(=O)NC1C2CC3CC(C2)CC1C3 (stereo unspecified) | > 100 | > 100 µM | > 100 | > 100 | > 100 | > 100 | > 100 |  |  |  |  | > 100 |  | > 100 |  |  |  |  |  | 
CC(Br)C(=O)Nc1ccc(C(=O)O)c(O)c1 (stereo unspecified) | > 100 | > 100 µM | > 100 | 62.8 |  | > 100 | 43.6 |  |  |  |  |  |  | > 100 |  |  |  |  |  | 
Cc1cccc(Nc2cnc(N)nc2N)c1 | > 100 | > 100 µM | > 100 | > 100 |  | > 100 | > 100 |  |  |  |  |  |  | > 100 |  |  |  |  |  | 
CN1C(Cl)=NS(=O)(=O)c2ccccc21 | > 100 | > 100 µM | 36.6 | > 100 |  | > 100 | > 100 |  |  |  |  |  |  | > 100 |  |  |  |  |  | 
O=C(O)CCSC(=O)Nc1ccc(N=Nc2ccccc2)cc1 | > 100 | > 100 µM | > 100 | > 100 | > 100 | > 100 | > 100 | > 100 |  |  |  | > 100 |  |  |  |  |  |  |  | 
O=C1OC(CN2CCOCC2)CN1/N=C/c1ccc([N+](=O)[O-])o1 (stereo unspecified) | 63 | > 100 µM | > 100 | 98.6 |  | > 100 | > 100 |  |  |  |  |  |  | > 100 |  |  |  |  |  | 
CCC(=O)N/N=C(\C=C\c1cccc(O)c1)c1sc(Nc2ccc(C)cc2[N+](=O)[O-])nc1C | > 100 | > 100 µM | > 100 | > 100 | > 100 | > 100 | > 100 | > 100 |  |  |  | > 100 |  | > 100 |  |  |  |  |  | 
O=C(O)C1=C(C(=O)Nc2ccc(NC(=O)C3=C(C(=O)O)C4C=CC3C4)cc2)C2C=CC1C2 | > 100 | > 100 µM | > 100 | > 100 | > 100 | > 100 | > 100 | > 100 |  |  |  | > 100 |  | > 100 |  |  |  |  |  | 
CC12Oc3ccc4ccccc4c3CC1Cc1c(ccc3ccccc13)O2 (stereo unspecified) |  | > 100 µM | > 100 | > 100 | > 100 | > 100 |  |  |  |  |  | 98.7 |  | > 100 |  |  |  |  |  | 
Cc1cc(OCc2nnc3n2N=C(c2ccc(Cl)cc2Cl)CS3)ccc1Cl | > 100 | 81.2 µM | > 100 | > 100 |  | > 100 | > 100 |  | 25.6 | 6.89 |  |  | 76.2 | > 100 | 44.2 | 71.3 |  | 45 |  | 42.2
Cn1cnc([N+](=O)[O-])c1Sc1ncn[nH]1 | > 100 | > 100 µM | > 100 | > 100 |  | > 100 | > 100 |  | > 100 | > 100 |  |  | 40.9 | > 100 | 30.7 | > 100 |  | > 100 |  | 28.6
COC1=C2CC(C)CC(OC)C(O)C(C)/C=C(\C)C(OC(N)=O)C(OC)/C=C\C=C(/C)C(=O)NC(=C(/C=N/N3CCCCC3)C1=O)C2=O (stereo unspecified) | 29.9 | 14.7 µM | 37 | 20.8 | 24.1 | 16.6 | 7.85 | 48.3 |  |  |  | 27.2 |  | 32.5 |  |  |  |  |  | 
O=C1NC(=O)C2C1N(Cc1ccccc1)C(=O)N2Cc1ccccc1 (stereo unspecified) | > 100 | > 100 µM | > 100 | > 100 | > 100 |  | > 100 | > 100 |  |  |  |  |  |  |  |  |  |  |  | 
CCOC(=O)c1c(C)c(C)n2c1NC(=O)C2 | > 100 | > 100 µM | > 100 | 97.7 | > 100 | > 100 | > 100 |  |  |  |  | > 100 |  | > 100 |  |  |  |  |  | 
c1ccc2c(c1)C1=NCCN1c1ccccc1-2 | 6.08 | 35.5 µM | 9.05 | 14 | 13 | 11.5 | 5.98 | 18 |  |  |  | 9.19 |  | 8.05 |  |  |  |  |  | 
CN(C)CCN1C(=O)c2cccc3cccc(c23)C1=O | > 25 | > 25 µM | 17.5 | > 25 |  | > 25 | > 25 |  | 18.4 | > 25 |  |  | > 25 | > 25 | 5.13 | 19.8 |  | 13.2 |  | 14.5
